Measurements: patent publication US8680159B2, “Bradykinin 1 receptor modulating compounds” (Gruenenthal GmbH, priority 2010, dated 2014)

biological target: T1, B1R receptor of the rat (CHO K1 cells stably transfected with the B1R gene of the rat) (Rattus norvegicus, UniProt P97583); experiment: Functional study on the bradykinin receptor 1 (B1R), Ca2+ fluorescence (Fluo-4) FLIPR/Novostar assay, rB1R cells; format: cell-based; conditions: CHO-K1, 10 μM, read-out: % Inhibition (r-B1R) at 10 μM
T1 construct: expressed in transfected cells; host or cells: CHO K1 cells (Chinese hamster ovary), stably transfected
T1 sequence (P97583 1-337): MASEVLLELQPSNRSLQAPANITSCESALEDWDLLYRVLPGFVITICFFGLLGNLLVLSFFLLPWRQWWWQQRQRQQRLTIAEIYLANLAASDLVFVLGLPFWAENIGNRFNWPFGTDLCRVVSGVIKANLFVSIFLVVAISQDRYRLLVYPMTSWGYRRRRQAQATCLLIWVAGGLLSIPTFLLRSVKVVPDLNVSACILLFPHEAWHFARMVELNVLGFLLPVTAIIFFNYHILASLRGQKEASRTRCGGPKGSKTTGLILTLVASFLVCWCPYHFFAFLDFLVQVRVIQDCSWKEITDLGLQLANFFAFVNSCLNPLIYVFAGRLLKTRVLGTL
Summary of the method: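 Test compounds (10 μM) were added first and the Ca2+ rise was scored as % activation against Lys-Des-Arg9-bradykinin (≥50 nM, human) or Des-Arg9-bradykinin (≥1 μM, rat). After 6-20 min, the matching agonist was given at its EC80, and % inhibition relative to maximal achievable inhibition was calculated.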

Row | SMILES | inhibition at 10 µM
1 | COCC(=O)NC1CCc2ccc(C(=O)N(C)C3CCN(c4cc(C)nc(C)c4)CC3)cc21 (stereo not shown) [CC_H-300, N-[1-(2,6-Dimethyl-pyridin-4-yl)-piperidin-4-yl]-3-[(2-methoxy-acetyl)amino]-N-methyl-2,3-dihydro-1H-indene-5-carboxylic acid amide] | 103%
2 | Cc1cc(N2CCC(N(C)C(=O)c3ccc4c(c3)C(NC(=O)Nc3ccccc3Cl)CC4)CC2)cc(C)n1 (stereo not shown) [CC_H-304, 3-[[(2-Chlorophenyl)-carbamoyl]amino]-N-[1-(2,6-dimethyl-pyridin-4-yl)-piperidin-4-yl]-N-methyl-2,3-dihydro-1H-indene-5-carboxylic acid amide] | 98%
3 | Cc1cc(N2CCC(N(C)C(=O)c3ccc4c(c3)C(NC(=O)Nc3cccc(Cl)c3)CC4)CC2)cc(C)n1 (stereo not shown) [CC_H-305, 3-[[(3-Chlorophenyl)-carbamoyl]amino]-N-[1-(2,6-dimethyl-pyridin-4-yl)-piperidin-4-yl]-N-methyl-2,3-dihydro-1H-indene-5-carboxylic acid amide] | 109%
4 | Cc1cc(N2CCC(N(C)C(=O)c3ccc4c(c3)C(NC(=O)Nc3cc(Cl)ccc3Cl)CC4)CC2)cc(C)n1 (stereo not shown) [CC_H-308, 3-[[(2,5-Dichloro-phenyl)-carbamoyl]amino]-N-[1-(2,6-dimethyl-pyridin-4-yl)-piperidin-4-yl]-N-methyl-2,3-dihydro-1H-indene-5-carboxylic acid amide] | 96%
5 | Cc1cc(N2CCC(N(C)C(=O)c3ccc4c(c3)C(NC(=O)Nc3ccc(Cl)cc3Cl)CC4)CC2)cc(C)n1 (stereo not shown) [CC_H-310, 3-[[(2,4-Dichlorophenyl)-carbamoyl]amino]-N-[1-(2,6-dimethyl-pyridin-4-yl)-piperidin-4-yl]-N-methyl-2,3-dihydro-1H-indene-5-carboxylic acid amide] | 101%
6 | Cc1cc(N2CCC(N(C)C(=O)c3ccc4c(c3)C(NC(=O)Nc3ccc(F)c(Cl)c3)CC4)CC2)cc(C)n1 (stereo not shown) [CC_H-314, 3-[[(3-Chloro-4-fluoro-phenyl)-carbamoyl]amino]-N-[1-(2,6-dimethyl-pyridin-4-yl)-piperidin-4-yl]-N-methyl-2,3-dihydro-1H-indene-5-carboxylic acid amide] | 81%
7 | COc1ccc(Cl)cc1NC(=O)NC1CCc2ccc(C(=O)N(C)C3CCN(c4cc(C)nc(C)c4)CC3)cc21 (stereo not shown) [CC_H-315, 3-[[(5-Chloro-2-methoxy-phenyl)-carbamoyl]amino]-N-[1-(2,6-dimethyl-pyridin-4-yl)-piperidin-4-yl]-N-methyl-2,3-dihydro-1H-indene-5-carboxylic acid amide] | 72%
8 | Cc1cc(N2CCC(N(C)C(=O)c3ccc4c(c3)C(NC(=O)N(C)c3ccccc3Cl)CC4)CC2)cc(C)n1 (stereo not shown) [CC_H-316, 3-[[(2-Chlorophenyl)-methyl-carbamoyl]amino]-N-[1-(2,6-dimethyl-pyridin-4-yl)-piperidin-4-yl]-N-methyl-2,3-dihydro-1H-indene-5-carboxylic acid amide] | 106%
9 | Cc1cc(N2CCC(N(C)C(=O)c3ccc4c(c3)C(NC(=O)N(C)c3ccc(Cl)cc3Cl)CC4)CC2)cc(C)n1 (stereo not shown) [CC_H-317, 3-[[(2,4-Dichlorophenyl)-methyl-carbamoyl]amino]-N-[1-(2,6-dimethyl-pyridin-4-yl)-piperidin-4-yl]-N-methyl-2,3-dihydro-1H-indene-5-carboxylic acid amide] | 110%
10 | Cc1cc(N2CCC(N(C)C(=O)c3ccc4c(c3)C(NC(=O)CC(C)C)CC4)CC2)cc(C)n1 (stereo not shown) [CC_H-318, N-[1-(2,6-Dimethyl-pyridin-4-yl)-piperidin-4-yl]-N-methyl-3-(3-methyl-butanoylamino)-2,3-dihydro-1H-indene-5-carboxylic acid amide] | 111%
11 | CCCC(=O)NC1CCc2ccc(C(=O)N(C)C3CCN(c4cc(C)nc(C)c4)CC3)cc21 (stereo not shown) [CC_H-319, 3-(Butanoylamino)-N-[1-(2,6-dimethyl-pyridin-4-yl)-piperidin-4-yl]-N-methyl-2,3-dihydro-1H-indene-5-carboxylic acid amide] | 106%
12 | Cc1cc(N2CCC(N(C)C(=O)c3ccc4c(c3)C(NC(=O)CCC3CCCC3)CC4)CC2)cc(C)n1 (stereo not shown) [CC_H-320, 3-(3-Cyclopentyl-propanoylamino)-N-[1-(2,6-dimethyl-pyridin-4-yl)-piperidin-4-yl]-N-methyl-2,3-dihydro-1H-indene-5-carboxylic acid amide] | 110%
13 | CCS(=O)(=O)NC1CCc2ccc(C(=O)N(C)C3CCN(c4cc(C)nc(C)c4)CC3)cc21 (stereo not shown) [CC_H-321, N-[1-(2,6-Dimethyl-pyridin-4-yl)-piperidin-4-yl]-3-[(ethylsulfonyl)amino]-N-methyl-2,3-dihydro-1H-indene-5-carboxylic acid amide] | 65%

Continued, values first:

Row | inhibition at 10 µM | SMILES
14 | 112% | Cc1cc(N2CCC(N(C)C(=O)c3ccc4c(c3)C(NS(=O)(=O)Cc3ccccc3C(F)(F)F)CC4)CC2)cc(C)n1 (stereo not shown) [CC_H-302, N-[1-(2,6-Dimethyl-pyridin-4-yl)-piperidin-4-yl]-N-methyl-3-[[[2-(trifluoromethyl)-phenyl]-methylsulfonyl]amino]-2,3-dihydro-1H-indene-5-carboxylic acid amide]
15 | 112% | Cc1cc(N2CCC(N(C)C(=O)c3ccc4c(c3)C(NC(=O)c3cccc(C(F)(F)F)c3Cl)CC4)CC2)cc(C)n1 (stereo not shown) [CC_H-303, 3-[[2-Chloro-3-(trifluoromethyl)-benzoyl]amino]-N-[1-(2,6-dimethyl-pyridin-4-yl)-piperidin-4-yl]-N-methyl-2,3-dihydro-1H-indene-5-carboxylic acid amide]
16 | 107% | Cc1cc(N2CCC(N(C)C(=O)c3ccc4c(c3)C(NC(=O)Nc3c(Cl)cccc3Cl)CC4)CC2)cc(C)n1 (stereo not shown) [CC_H-306, 3-[[(2,6-Dichloro-phenyl)-carbamoyl]amino]-N-[1-(2,6-dimethyl-pyridin-4-yl)-piperidin-4-yl]-N-methyl-2,3-dihydro-1H-indene-5-carboxylic acid amide]
17 | 91% | Cc1cc(N2CCC(N(C)C(=O)c3ccc4c(c3)C(NC(=O)Nc3cccc(Cl)c3Cl)CC4)CC2)cc(C)n1 (stereo not shown) [CC_H-307, 3-[[(2,3-Dichloro-phenyl)-carbamoyl]amino]-N-[1-(2,6-dimethyl-pyridin-4-yl)-piperidin-4-yl]-N-methyl-2,3-dihydro-1H-indene-5-carboxylic acid amide]
18 | 80% | Cc1cc(N2CCC(N(C)C(=O)c3ccc4c(c3)C(NC(=O)Nc3cc(C(F)(F)F)ccc3Cl)CC4)CC2)cc(C)n1 (stereo not shown) [CC_H-311, 3-[[[2-Chloro-5-(trifluoromethyl)-phenyl]-carbamoyl]amino]-N-[1-(2,6-dimethyl-pyridin-4-yl)-piperidin-4-yl]-N-methyl-2,3-dihydro-1H-indene-5-carboxylic acid amide]
19 | 92% | Cc1cc(N2CCC(N(C)C(=O)c3ccc4c(c3)C(NC(=O)Nc3ccc(Cl)cc3C(F)(F)F)CC4)CC2)cc(C)n1 (stereo not shown) [CC_H-312, 3-[[[4-Chloro-2-(trifluoromethyl)-phenyl]-carbamoyl]amino]-N-[1-(2,6-dimethyl-pyridin-4-yl)-piperidin-4-yl]-N-methyl-2,3-dihydro-1H-indene-5-carboxylic acid amide]
